Experimental data taken from US7176322B2, “Calcium receptor modulating agents” (Amgen Inc., priority 2002, dated 2007).
pEC50: −log10 of the molar value.

These compounds were tested against T1, human parathyroid cell Ca2+ receptor (hPCaR) (Homo sapiens, UniProt P41180) (assay: [Ca2+]i measurement (fluo-3 fluorescence) in HEK 293 4.0-7 cells stably transfected with hPCaR). Details: HEK 293 4.0-7 cells expressing hPCaR; fluo-3, excitation 485 nm / emission 530 nm.
T1 construct: expressed in transfected cells
T1 sequence (P41180 20-1078): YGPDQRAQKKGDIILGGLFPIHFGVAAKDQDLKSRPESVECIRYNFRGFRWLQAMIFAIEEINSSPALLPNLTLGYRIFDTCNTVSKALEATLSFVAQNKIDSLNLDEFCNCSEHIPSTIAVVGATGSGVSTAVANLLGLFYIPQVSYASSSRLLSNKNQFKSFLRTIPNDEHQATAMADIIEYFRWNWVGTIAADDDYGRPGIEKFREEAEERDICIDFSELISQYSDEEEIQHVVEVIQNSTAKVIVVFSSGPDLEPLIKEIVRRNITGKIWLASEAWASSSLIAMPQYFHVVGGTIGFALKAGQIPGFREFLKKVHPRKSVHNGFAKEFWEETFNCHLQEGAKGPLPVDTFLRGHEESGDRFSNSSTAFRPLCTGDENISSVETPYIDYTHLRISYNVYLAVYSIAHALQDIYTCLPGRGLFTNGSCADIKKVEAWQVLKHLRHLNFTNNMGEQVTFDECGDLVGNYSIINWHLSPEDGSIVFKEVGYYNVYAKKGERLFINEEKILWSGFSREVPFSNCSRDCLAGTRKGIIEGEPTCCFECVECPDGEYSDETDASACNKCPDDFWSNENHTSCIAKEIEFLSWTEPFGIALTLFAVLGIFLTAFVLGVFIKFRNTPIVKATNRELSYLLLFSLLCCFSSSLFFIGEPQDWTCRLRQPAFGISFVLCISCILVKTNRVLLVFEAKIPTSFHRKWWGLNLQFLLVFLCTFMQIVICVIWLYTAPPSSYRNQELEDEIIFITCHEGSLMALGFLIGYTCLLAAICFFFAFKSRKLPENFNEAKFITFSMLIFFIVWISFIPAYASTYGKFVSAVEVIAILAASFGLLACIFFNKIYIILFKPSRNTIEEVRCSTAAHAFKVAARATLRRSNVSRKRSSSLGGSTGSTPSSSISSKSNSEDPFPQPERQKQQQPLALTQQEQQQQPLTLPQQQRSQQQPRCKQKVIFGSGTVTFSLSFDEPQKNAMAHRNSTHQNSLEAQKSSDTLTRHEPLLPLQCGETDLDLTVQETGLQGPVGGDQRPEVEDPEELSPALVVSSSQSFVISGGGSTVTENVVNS
Type: cell-based
Procedure: The activities of the compounds of the present invention on calcium receptors were measured. In one embodiment, the measurement was performed in accordance with the method described in Example 4 of Nemeth et al., PCT/US95/13704 (International Publication No. WO96/12697) herein incorporated by reference.
A 4.0-kb NotI-HindIII fragment of the human parathyroid cell Ca^2+ receptor (hPCaR) cDNA was subcloned into the mammalian expression vector pCEP4 (Invitrogen) containing the hygromycin-resistant gene as a selectable marker. This plasmid was transfected into HEK 293 cells by calcium phosphate precipitation. Transfected cells were grown in Dulbecco's modified Eagle's medium containing 10% fetal bovine serum and hygromycin (200 μg/mL). Hygromycin-resistant colonies were subcloned and assayed for hPCaR mRNA by solution hybridization using a ^32P-labeled RNA probe complementary to the (4.0 kb) hPCaR sequence (Garrett, et al., J. Biol. Chem. 270, 12919–12925 (1995)). Clone 7 was used to assess the effects of compounds on [Ca^2+]i. This stably transfected cell line is termed HEK 293 4.0–7. For measurements of [Ca^2+]i, the cells were recovered from tissue culture flasks by brief treatment with 0.02% EDTA and then washed and resuspended in PCB containing 1 mM CaCl2 and 0.1% Bovine Serum Albumin (“BSA”). The cells were loaded with fluo-3 by incubation for 30 min at 37° C., with parathyroid cell buffer (126 mM NaCl, 4 mM KCl, 1 mM MgSO4, 0.7 mM K2HPO4/KH2PO4, 20 mM HEPES.NaOH (pH 7.45)) containing 0.5% BSA in 1 mM CaCl2 and 2 μM fluo-3 acetoxymethyl ester. The cells were subsequently washed, each test compound was added to the cells and the fluorescence was recorded by using excitation and emission wavelengths of 485 and 530 nm, respectively.

Structure (SMILES) | pEC50
CCn1c2ccccc2c2cc(CN[C@H](C)c3cccc4ccccc34)ccc21 [(R)-N-(1-(1-Naphthyl)ethyl)-N-(9-ethyl-3-carbazolylmethyl)amine] | ≥ 5.00
CCn1c2ccccc2c2cc(CN[C@H](C)c3cccc(OC)c3)ccc21 [(R)-N-(1-(3-Methoxyphenyl)ethyl)-N-(9-ethyl-3-carbazolylmethyl)amine] | ≥ 5.00
CCn1nc2ccc(CN[C@H](C)c3cccc4ccccc34)cc2n1 [Example 4, (R)-N-(1-(1-Naphthyl)ethyl)-N-(2′-ethyl-benzotriazol-5-ylmethyl)amine] | ≥ 5.00
CCn1nc2ccc(CN[C@H](C)c3cccc(OC)c3)cc2n1 [Example 5, (R)-N-(1-(3-Methoxyphenyl)ethyl)-N-(2′-ethyl-benzotriazol-5-ylmethyl)amine] | ≥ 5.00
CCn1nc2ccc(CN[C@H](C)c3ccccc3)cc2n1 [Example 6, (R)-N-(1-(Phenyl)ethyl)-N-(2′-ethyl-benzotriazol-5-ylmethyl)amine] | ≥ 5.00
CCn1c2ccc(CN[C@H](C)c3cccc(OC)c3)cc2c2cc(OC)ccc21 [Example 8, (R)-N-(1-(3-Methoxyphenyl)ethyl)-N-(9-ethyl-6-methoxy-3-carbazolylmethyl)amine] | ≥ 5.00
CCn1c2c(c3cc(CN[C@H](C)c4ccccc4)ccc31)CCC2 [Example 10] | ≥ 5.00
C[C@@H](NCc1ccc2c(c1)ncn2C)c1cccc2ccccc12 [Example 11, (R)-N-(1-(1-Naphthyl)ethyl)-N-((1-methylbenzimidazol-5-yl)methyl)amine] | ≥ 5.00
C[C@@H](NCc1ccc2c(c1)ncn2C)c1ccccc1 [Example 12, (R)-N-(1-(Phenyl)ethyl)-N-((1-methylbenzimidazol-5-yl)methyl)amine] | ≥ 5.00
CCn1c2c(c3cc(CN[C@H](C)c4ccccc4)ccc31)CN(C)CC2 [Example 13] | ≥ 5.00
CCn1c2c(c3cc(CN[C@H](C)c4cccc(OC)c4)ccc31)CN(C)CC2 [Example 14] | ≥ 5.00
CCn1c2ccccc2c2cc(CN[C@H](C)c3ccccc3)ccc21 [Example 17, (R)-N-(1-(Phenyl)ethyl)-N-(9-ethyl-3-carbazolylmethyl)amine] | ≥ 5.00
CCn1ccc2cc(CN[C@H](C)c3cccc4ccccc34)ccc21 [Example 18, (R)-N-(1-(1-Naphthyl)ethyl)-N-((1-ethylindole-5-yl)methyl)amine] | ≥ 5.00
CCn1c2c(c3cc(CN[C@H](C)c4ccccc4)ccc31)COCC2 [Example 19] | ≥ 5.00
CCn1c2c(c3cc(CN[C@H](C)c4cccc(OC)c4)ccc31)COCC2 [Example 20] | ≥ 5.00
CCn1c2c(c3cc(CN[C@H](C)c4cccc5ccccc45)ccc31)COCC2 [Example 21] | ≥ 5.00
C[C@@H](NCc1ccc2c(c1)c1ccccc1n2CCCN(C)C)c1cccc2ccccc12 [Example 24] | ≥ 5.00
C[C@@H](NCc1ccc2[nH]ccc2c1)c1cccc2ccccc12 [Example 25, (1R)-N-(1H-indol-5-ylmethyl)-1-(1-naphthalenyl)ethanamine] | ≥ 5.00
CCn1cc(-c2ccccc2)c2cc(CN[C@H](C)c3ccccc3)ccc21 [Example 28, (1R)-N-((1-ethyl-3-phenyl-1H-indol-5-yl)methyl)-1-phenylethanamine] | ≥ 5.00
CCn1cc(-c2ccc(OC(F)(F)F)cc2)c2cc(CN[C@H](C)c3ccccc3)ccc21 [Example 29, (1R)-N-((1-ethyl-3-(4-((trifluoromethyl)oxy)phenyl)-1H-indol-5-yl)methyl)-1-phenylethanamine] | ≥ 5.00
